Measurements reported in BigSolDB 2.1.

O=[N+]([O-])c1cc([N+](=O)[O-])c(Cl)c(Cl)c1Cl
solubility (mole fraction)
Conditions | 278.15 K | 283.15 K | 288.15 K | 293.15 K | 298.15 K | 303.15 K | 308.15 K | 313.15 K | 318.15 K | 323.15 K
in 1,2-dichloroethane | 0.06 | 0.0736 | 0.0895 | 0.108 | 0.13 | 0.155 | 0.185 | 0.219 | 0.258 | 0.301
in DMF | 0.194 | 0.211 | 0.23 | 0.251 | 0.274 | 0.298 | 0.324 | 0.352 | 0.384 | 0.419
in DMSO | – | – | – | 0.238 | 0.262 | 0.287 | 0.315 | 0.345 | 0.378 | 0.412
in NMP | 0.278 | 0.291 | 0.305 | 0.321 | 0.338 | 0.357 | 0.377 | 0.4 | 0.425 | 0.454
in acetone | 0.109 | 0.124 | 0.141 | 0.16 | 0.181 | 0.204 | 0.229 | 0.257 | 0.289 | 0.323
in acetonitrile | 0.0401 | 0.0511 | 0.0644 | 0.0806 | 0.1 | 0.123 | 0.15 | 0.183 | 0.22 | 0.265
in chloroform | 0.0536 | 0.066 | 0.0807 | 0.0982 | 0.118 | 0.141 | 0.169 | 0.201 | 0.237 | 0.279
in dichloromethane | 0.0689 | 0.0822 | 0.0975 | 0.116 | 0.135 | 0.159 | 0.185 | – | – | –
in ethanol | 0.00235 | 0.00301 | 0.00382 | 0.00483 | 0.00611 | 0.00765 | 0.00957 | 0.0118 | 0.0146 | 0.0182
in ethyl acetate | 0.097 | 0.111 | 0.128 | 0.146 | 0.167 | 0.191 | 0.217 | 0.245 | 0.279 | 0.314
in isopropanol | 0.000879 | 0.00125 | 0.00174 | 0.00241 | 0.00333 | 0.00451 | 0.00603 | 0.00807 | 0.0107 | 0.0142
in methanol | 0.00262 | 0.0033 | 0.00414 | 0.00519 | 0.00648 | 0.00806 | 0.00985 | 0.0121 | 0.0149 | 0.0182
in n-butanol | 0.00175 | 0.00238 | 0.0032 | 0.00428 | 0.00565 | 0.00752 | 0.00967 | 0.0126 | 0.0164 | 0.021
in tetrachloromethane | 0.00374 | 0.00582 | 0.00891 | 0.0134 | 0.0201 | 0.0296 | 0.0425 | 0.0609 | 0.0864 | 0.12
in toluene | 0.14 | 0.159 | 0.18 | 0.204 | 0.23 | 0.258 | 0.289 | 0.323 | 0.36 | 0.4
